Experimental data published in patent publication US20060199876A1, “Bioceramic composite coatings and process for making same” (The University of British Columbia, priority 2005, published 2006).

Assay: Drug release from PCMC composite coating with PLGA diffusion barrier
Type: physicochemical
Conditions: release from HAP/PLGA PCMC coating of Example 9 (paclitaxel in HAP phase, Rapamycin in polymer phase) covered with 2 μm thick PLGA (85:15) layer
Experimental: Porous HAP coating was deposited on stent as in the above Example 2. The HAP porous coating stents was impregnated into 2 wt % paclitaxel methanol solution for 20 min and then removed extra solution by high speed spinning, then dried in an oven for 2 hours. The paclitaxel was filled into mesopores and partial into large pore micropores. The paclitaxel loaded stents were subsequently impregnated with 10 wt % PLGA acetone solution containing 2 wt % Rapamycin and then the extra solution removed by spinning. The biopolymer PLGA filled inside pores provides extra flexibility for HAP coatings and diffusion barrier for controlling drug release profiles. Rapamycin in the polymer phase will release much faster than that of paclitaxel only in the HAP phase.
As illustrated in the above Example 9, different drugs were encapsulated into the polymer and HAP phases. In order to add further controls for drug release profile, e.g. to further slow down the drug release rate, a functional diffusion barrier was deposited on the surface of the composite PCMC coating. In this particular example, a 2 μm thick PLGA (85:15) layer was deposited on the PCMC surface by spin-coating. Rapamycin release from such modified PCMC coating was sustained for 3-5 months and paclitaxel for 6-12 months.

Question: Which “drug release sustained for” value does the source give for `CC(=O)O[C@H]1C(=O)[C@@]2(C)[C@H]([C@H](OC(=O)c3ccccc3)[C@]3(O)C[C@H](OC(=O)[C@H](O)[C@@H](NC(=O)c4ccccc4)c4ccccc4)C(C)=C1C3(C)C)[C@]1(OC(C)=O)CO[C@@H]1C[C@@H]2O` [paclitaxel] here?
Answer: 6-12 months
